Measured values published in paper PMC9254247, “Dual-sensitive antibacterial peptide nanoparticles prevent dental caries” (Theranostics, 2022).
No end group written: not given here.

System: fresh mice erythrocytes
Assay type: cell-based, mouse
Conditions: PBS pH 7.4; 30 min; 37 °C
Description: Peptide and different pH of culture medium prepared. The pH of BHI medium was adjusted by HCl and NaOH. All peptides, including lycosin- I, pHly-1, s-pHly-1 were synthesized on a Rink amide-AM resin using the SPPS
(9- fluorenyl-methoxycarbonyl solid-phase peptide synthesis) method as reported previously1. Then peptides were cleaved from the resin using TFA/1,2- ethanedithiol/thioanisole/anisole (90/5/3/2 (v/v)), precipitated in cold diethyl ether and the collected precipitate was dried by air -drying . The prepared peptides were purified by reverse phase- HPLC (RP-HPLC) and their molecular weights were determined by MALDI-TOF MS.
Hemolytic assay. Approximately 4 % (in volume) of the mouse erythrocyte s were prepared by diluting fresh erythrocytes to 25-fold dilution with PBS buffer (pH 7.4).
The stock peptide solution ([…]) diluted by PBS solution to reach various concentrations (200 μL) was placed in a 1.5 mL sterile microfuge tube, followed by the addition of 200 μ L o f erythrocyte suspension. The mixture was incubated at 37 °C for 30 min. Then, the mixture was centrifuged at 3,500 rpm for 5 min to collect the supernatant. Aliquots (100 μL) of the supernatant were removed to 96-well plates, and the absorbance was detected at 450 nm using a microplate reader (Multiskan Spectrum, BioTek Inc., USA). Untreated erythrocyte suspension in an equal volume of PBS solution and 0.1% Triton X-100 were used as the negative control and positive […]
Isolation and culture of clinical S.mutans strains. Ethical approval of the study and the written consent/permission forms were obtained from Institutional Review Board (IRB) at Hunan Normal University prior to the study. For each child, written permission form was reviewed and signed by their legal guardians. Plaque -biofilm samples were collected from patients, including 16 Middle-aged and young patients and 4 children (age between 48 and 72 months) diagnosed with severe early childhood caries (S-ECC) in Changsha Stomatological Hospital. […]

LHQHLHQHAIFHAIIHMAHFWIK-NH2 [s-pHly-1 NPs]
HC50: 423.0 µM
